{"source": "patent US20160220569A1", "about": "“CDK4/6 Inhibitor Dosage Formulations For The Protection Of Hematopoietic Stem And Progenitor Cells During Chemotherapy” (G1 Therapeutics, Inc., priority 2015, published 2016)", "test": "14-day toxicokinetic study in dogs", "assay_type": "in vivo, dogs (Beagle)", "details": "male and female dogs", "description": "Dogs in the control group were not exposed to Compound 1 and so were a true control group.\nThe required weight of Compound 1 di-HCl was added to an appropriate size vessel. […] The vessel was placed on a stirring hotplate and the formulation heated to a temperature of 30-35° C. The contents of the vessel were allowed to stir at 30-35° C. or a stir plate until all test article appeared to be dissolved, and for a period of at least 1 hour. The pH of the formulation was verified and adjusted to 4.0-4.5 using 1N HCl or 1N NaOH as required. The formulation was transferred into an appropriate size graduated cylinder. Sufficient vehicle control will be added to the cylinder to obtain the final desired concentration of formulated test article. The completed stock formulation was dispensed into several amber glass bottles as aliquots for each day of dosing. These formulations were stored at controlled room temperature (15-30° C.) until used for dose administration.\nThe beagle dog was chosen for this study as it is a species that is used for non-clinical toxicity and pharmacokinetic evaluations and satisfies the regulatory requirement for non-clinical safety studies in a non-rodent species. […]"}
{"smiles": "CN1CCN(c2ccc(Nc3ncc4cc5n(c4n3)C3(CCCCC3)CNC5=O)nc2)CC1", "note": "[Compound 1, 2′-((5-(4-methylpiperazin-1-yl)pyridin-2-yl)amino)-7′,8′-dihydro-6′H-spiro[cyclohexane-1,9′-pyrazino[1′,2′:1,5]pyrrolo[2,3-d]pyrimidin]-6′-one]", "values": [{"measurement": "systemic exposure with increasing dose level", "result": "increased roughly proportionally"}]}
